Patent US20230003721A1, “MITOTHERAPEUTICS FOR THE TREATMENT OF BRAIN DISORDERS” (The University of Florida Research Foundation, Inc., priority 2019, published 2023)
Structures can show the parent of a compound that is named as a salt. Where two headings read alike, the source gives them in different places.

Experiments:
primary neurons [1] = test: TMRM fluorescence assay of inner mitochondrial membrane potential (ΔΨm); conditions: for Emax / EC50: Mus musculus, Primary neuron; for Emax: read-out: TMRM (Effect-size); for EC50: read-out: TMRM-EC50; for TMRM Primary: primary screen, 12.5 μM; for TMRM Primary / TMRM Rescreen: 24 h
primary neurons [2] = test: CellTiter-Glo luminescence-based ATP assay; assay type: cell-based, mouse; conditions: for ATP: ATP orthogonal screen, 24 h; for EC50 / Emax: Mus musculus, Primary neuron, dose response; for EC50: 15 concentrations from 6 nM to 100 uM; for Emax: maximal percent increase relative to in-plate DMSO controls, read-out: ATP (Effect-size); for ATP production in neurons: after 24 hr of treatment
Outline: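 Primary neurons treated from DIV13 for 24 h with compound or DMSO. After part of the medium was removed, CellTiter-Glo reagent was added; plates were shaken 10 min at 200 rpm, kept 2 min in the dark at room temperature, and luminescence read as total ATP.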

Drosophila model for AD = test: Drosophila model for AD: neuronal mitochondrial morphology; assay type: in vivo; conditions: cell bodies of neurons; 100 micromolar, 15 days-of-age
Description: To assay representative compounds in this example, we employed a Drosophila model for AD (X. Wang et al., Mol. Neurobiol. […] Flies expressing this toxic protein show: […] Drugs that show efficacy therefore: enlarge neuronal mitochondria (increased volume, increased surface area, increased length), reduce sphericity, and reduce the number of mitochondria compared to untreated Alzheimer's flies. The AD model flies were collected immediately after eclosion from the pupal case and transferred to food that was laced with drug at 100 micromolar concentration. The flies were aged to 15 days-of-age: this is when the mitochondrial pathology is very robust. We compared the morphology of mitochondria collected from these flies treated with drug and compared them to the mitochondria of flies that remained untreated.

primary neurons [3] = test: Mitochondrial morphology and neurite area after functional modulators; assay type: cell-based, mouse; set-up: key to Neurite Area: non-significant (n.s.); conditions: for Mitochondrial Morphology / Neurite Area: significant change
Procedure: Mitochondrial morphology and neurite area measurements. Mitochondrial morphology and neurite area were quantified using methods described by Varkuti et al, 2020. Briefly, Cre-dependent mitochondrial targeted GFP2 (mito-GFP) ROSA26 knock-in mice were crossed with Ai14 (007908, The Jackson Laboratory) expressing cytosolic-tdTomato, and the forebrain of P0 pups were isolated and primary neurons were cultured as described above. AAV9 virus containing the iCRE sequence driven by the neuron specific CaMKII promoter was added to the cell culture at plating and 75% of the media replaced 4 h after plating. […] Z-projected images of the green channel were preprocessed (background subtraction: rolling ball, radius=3; median filtering: radius=1) and somatic mitochondria were removed (see details in Varkuti et al, Science Advances 6 (2020) eaaw8702). Red channel images were also preprocessed (tubeness filter, soma removal). Preprocessed images were segmented by GE Developer software (object-based, kernel size: 3). […] The length and circularity measurements for mitochondria were aggregated using the median and the area for neurites using the sum. After removing empty fields and outlier values from the fields, aggregated field values were averaged to well values (4 fields/well, 12 wells/compound). Robust Z-scores were calculated using DMSO-treated wells for each well ((mediancompound−medianDMSO)/median absolute deviationDMSO), well values were averaged for each compound.
A high-content assay was developed in parallel to monitor aspects of mitochondrial dynamics in primary cultured neurons that conditionally express (Cre recombinase dependent) mitochondrial-tagged GFP and cytosolic tdTomato reporters (Varkuti et al., 2020). We monitored two aspects of neuritic mitochondrial dynamics: (1) the health of mitochondria as measured by the average circularity of axonal mitochondria, since defective mitochondria targeted for mitophagy become circular in shape, and (2) the balance between fission/fusion measured by the average length of dendritic mitochondria. […] FIG. 19A illustrates the results of surveying a collection of functional modulators selected from 5 different structural clusters (FIG. 17), quantified as robust z-scores relative to DMSO-treated control neurons.

[4] = tested on: primary forebrain neurons; test: cells; conditions: 24 h; for EC50: Mus musculus, Neuron; for Dendritic Mt CA / Neurite Area: rescreen, 12.5 μM, vs DMSO wells
[5] = tested on: isolated forebrain mitochondria; test: ATP production of isolated mitochondria (luciferase-based kinetic assay); assay type: biochemical, mouse; conditions: for ATP production kinetics, amplitude of single exponential fit: 12 μM, starting 20 min after addition, DMSO 22498±358; for ATP production of isolated mitochondria (direct effect): 12.5 μM, within the 45-min measurement period, vs DMSO
Procedure: Isolation of mitochondria. For the ATP synthesis experiments of FIG. 6, forebrains from P0 pups were dissected as described above. 2×10^7 cells were harvested for high-purity mitochondrial isolation using the Qiagen QProteome kit. The mitochondrial pellet was resuspended in 500 μl mitochondria storage buffer (provided by kit) and kept on ice until further use.
ATP production of isolated forebrain mitochondria of P0 pups was measured by ATP Determination Kit (Molecular Probes). […] The reactions were initiated by the addition of 1 mM ADP (deprived of ATP contamination by adding 3 U/ml hexokinase to 10 mM of ADP in 50 mM Tris-HCl, 20 mM MgCl2 and 22 mM glucose, incubating the solution at 37° C. for 1 hr and heat inactivating the hexokinase at 100° C. for 3 min). Luminescence was recorded every 15-30 sec for 1 hr at 580±40 nm.

primary neurons [6] = conditions: 12.5 μM compound, 48 h; for protection from peroxide (PO) induced mitochondrial fragmentation: 75 μM peroxide
[7] = tested on: primary forebrain neurons; conditions: 25 μM glutamate, 48 h
primary neurons [8] = test: Oxygen consumption rate (OCR) of permeabilized primary neurons; assay type: cell-based, mouse
Procedure: The oxygen consumption rate (OCR) of permeabilized neurons and isolated brain mitochondria (from 9-month old mice) was measured by the XF96 Extracellular Flux analyzer (Seahorse Bioscience). […] Prior to the start of the OCR measurement, all but 30 μl of Neurobasal A/B27 culture medium was removed from each well. Cells were washed twice with pre-warmed MAS-BSA assay medium (4 mg/ml fatty-acid free BSA, pH=7.2) and incubated in 180 μl at 37° C. for 5 min. Following the cartridge calibration, cells were loaded into the XF96 Extracellular Flux analyzer and further equilibrated for 10 min with two cycles of 3 min mixing and 2 min resting prior to the first measurement of basal respiration. OCR were measured at 37° C. under basal conditions followed by the sequential injection of pre-warmed 10× mitochondrial substrates/ADP (20 μl), oligomycin (22 μl), FCCP (24 μl), and rotenone/antimycin A (26 μl). The final concentrations of injected compounds were as follows: 10 mM mitochondrial substrates (pyruvate/malate or succinate), 1 mM ADP, 1.5 μM oligomycin, 3 μM FCCP, 2 μM rotenone/antimycin A. Saponin (25 μg/ml) was co-injected with substrate/ADP to permeabilize the cells and stimulate ADP-dependent respiration. Two baseline measurements were obtained prior to any injection and 2 response measurements were collected after each injection except for after FCCP addition which consisted of 1 measurement (9 total measurements in each assay). Each measurement cycle consisted of 2 min mixing, 2 min waiting, and 3 min data acquisition. This protocol allowed for sequential assessment of basal cell respiration, maximal mitochondrial respiratory capacity (State 3 with substrate/ADP), proton leak (State 4o with oligomycin), uncoupled maximal respiration (State 3U with FCCP) and non-mitochondrial respiration with the Complex I/Complex III inhibitors, rotenone/antimycin A. Cells were washed twice with MAS buffer to remove residue BSA contained in the assay medium, lysed in 50 μl lysis buffer (25 mM HEPES, 1 mM EGTA, 1 mM EDTA, 0.1% SDS, 1% NP-40, 1× protease and phosphatase inhibitor, pH 7.0 adjusted with NaOH) and total protein was determined by BCA assay. Oxygen consumption was normalized to total protein content as pmol O2/min/ug total protein.
Oxygen consumption rate (OCR) or extracellular acidification rate (ECAR) measurements from permeabilized neurons and isolated brain mitochondria were performed using the XF96 Extracellular Flux analyzer (Seahorse Bioscience). For assays using cultured neurons, primary neurons were dissociated from the forebrains of P0 pups, seeded at 1.9×10^4/well (PDL-coated XF96 plate), cultured to DIV13 and incubated with selected compounds or DMSO (0.1%) for 24 h. Prior to the start of the OCR measurement, all but 30 μl of Neurobasal A/B27 culture medium was removed from each well. Cells were washed twice with pre-warmed MAS-BSA assay medium (70 mM sucrose, 220 mM mannitol, 10 mM KH2PO4, 5 mM MgCl2, 2 mM HEPES and 1 mM EGTA, 4 mg/ml fatty-acid free BSA, pH=7.2 adjusted using KOH) and incubated in 180 ul MAS-BSA medium at 37° C. in a CO2-free incubator for 5 m. […] OCR and ECAR were measured at 37° C. under basal conditions followed by the sequential injection of pre-warmed 10× mitochondrial substrates/ADP (20 μl), oligomycin (22 μl), FCCP (24 μl), and rotenone/antimycin A (26 μl).

[9] = read-out: Elongation (Dend Mt length) EC50
[10] = read-out: Health (Ax Mt Circularity) EC50
[11] = read-out: Mt Content (Dend Mt CA) EC50
[12] = read-out: Sprouting (Neurite Area) EC50

Compound | Emax (primary neurons [1]) [%] | EC50 (primary neurons [1]) [nM] | TMRM Primary (primary neurons [1]) [Z-scores] | TMRM Rescreen (primary neurons [1]) [Z-scores] | ATP (primary neurons [2]) [Z-scores] | EC50 (primary neurons [2]) [nM] | Emax (primary neurons [2]) [%] | Surface area of mitochondria, p (treated vs untreated) (Drosophila model for AD) | Dendritic Mt CA [4] [robust Z-scores] | Neurite Area [4] [robust Z-scores] | protection from peroxide (PO) induced mitochondrial fragmentation (primary neurons [6]) | further results
O=c1[nH]c2ccccc2n1C1CCN(CCCC(c2ccc(F)cc2)c2ccc(F)cc2)CC1 [pimozide] | 25.1 | 130 | 2.65 | 3.74 | 6.60 | 90 | 20.4 | p = 0.017 | – | – | – | –
OC1(c2ccc(Cl)c(C(F)(F)F)c2)CCN(CCCC(c2ccc(F)cc2)c2ccc(F)cc2)CC1 [penfluridol] | 25.2 | 50 | 4.29 | 4.83 | 5.75 | 30 | 22.4 | p = 0.066 | – | – | – | neuritic area (primary neurons [3]; after 48 h of treatment): increase; Mitochondrial Morphology (primary neurons [3]): elongated; Neurite Area (primary neurons [3]): increased
CCN(CCCc1ccccc1)CCCc1ccccc1 [ALVERINE CITRATE] | – | – | 4.24 | 4.15 | 4.56 | – | – | – | 5.09 | −1.50 | fully protected | EC50 [4, 9]: 2900 nM; EC50 [4, 10]: 300 nM; EC50 [4, 11]: 200 nM; EC50 [4, 12]: > 25000 nM; ATP production in neurons (primary neurons [2]): increased; ATP production kinetics, amplitude of single exponential fit [5]: 28383±278; ATP production of isolated mitochondria (direct effect) [5]: significantly increased; protection from glutamate (GLUT) induced mitochondrial fragmentation (primary neurons [6]; 25 μM glutamate): fully protected; live:dead cell ratio in the presence of toxic concentrations of glutamate [7]: offered protection
COc1ccccc1OCCNCC(O)COc1cccc2[nH]c3ccccc3c12 (stereo not shown) [carvedilol] | 20.2 | 350 | 4.11 | 5.71 | 5.32 | 230 | 15.9 | p = 0.078 | – | – | – | –
CN(C)CCC=C1c2ccccc2COc2ccccc21 [doxepin hydrochloride] | 26.1 | – | 3.44 | 5.41 | 7.03 | – | 18.3 | – | – | – | – | basal rate of respiration (primary neurons [8]; 10 μM, 24 h): weak, non-significant, but consistent trend towards an increased basal rate of respiration; State 3 and 3u respiration with Complex I substrates (primary neurons [8]; 10 μM, 24 h, cultured neurons): significant increase; OCR (primary neurons [8]; oxygen consumption rate, significant change): increased; axonal mitochondrial circularity (primary neurons [3]; after 48 h of treatment): robust effects; Mitochondrial Morphology (primary neurons [3]): elongated; Neurite Area (primary neurons [3]): n.s.
Cc1ccccc1C(OCCN(C)C)c1ccccc1 (stereo not shown) [ORPHENADRINE CITRATE] | 25.5 | – | 3.26 | 5.75 | 6.08 | – | 14.3 | p = 0.022 | 3.21 | 0.08 | fully protected | –
COc1cc(O)c2c(=O)c(O)c(-c3ccc(O)c(O)c3)oc2c1 [RHAMNETIN] | – | – | – | – | – | – | – | p = 0.0564 | 4.48 | 2.04 | fully protected | EC50 [4, 9]: 200 nM; EC50 [4, 10]: 2700 nM; EC50 [4, 11]: 200 nM; EC50 [4, 12]: 300 nM; ATP production in neurons (primary neurons [2]): increase; ATP production kinetics, amplitude of single exponential fit [5]: 10059±166; ATP production of isolated mitochondria (direct effect) [5]: decreased
